Data published in article PMC3531433, “Structural Insights into Cellulolytic and Chitinolytic Enzymes Revealing Crucial Residues of Insect β-N-acetyl-D-hexosaminidase” (PLoS ONE, 2012).

How the values were obtained:
[1] = molecular target: T1, OfHex1 (Ostrinia furnacalis, UniProt Q06GJ0, E328Q); assay: inhibition of 4MU-β-GlcNAc hydrolysis, Dixon plot; assay type: biochemical
T1 construct: pPIC9, secreted from Pichia pastoris GS115; HisTrap and Mono Q purified; dimer with N-terminal zincin-like and C-terminal catalytic domain (residues 207-594)
T1 sequence (Q06GJ0 23-594 E328Q): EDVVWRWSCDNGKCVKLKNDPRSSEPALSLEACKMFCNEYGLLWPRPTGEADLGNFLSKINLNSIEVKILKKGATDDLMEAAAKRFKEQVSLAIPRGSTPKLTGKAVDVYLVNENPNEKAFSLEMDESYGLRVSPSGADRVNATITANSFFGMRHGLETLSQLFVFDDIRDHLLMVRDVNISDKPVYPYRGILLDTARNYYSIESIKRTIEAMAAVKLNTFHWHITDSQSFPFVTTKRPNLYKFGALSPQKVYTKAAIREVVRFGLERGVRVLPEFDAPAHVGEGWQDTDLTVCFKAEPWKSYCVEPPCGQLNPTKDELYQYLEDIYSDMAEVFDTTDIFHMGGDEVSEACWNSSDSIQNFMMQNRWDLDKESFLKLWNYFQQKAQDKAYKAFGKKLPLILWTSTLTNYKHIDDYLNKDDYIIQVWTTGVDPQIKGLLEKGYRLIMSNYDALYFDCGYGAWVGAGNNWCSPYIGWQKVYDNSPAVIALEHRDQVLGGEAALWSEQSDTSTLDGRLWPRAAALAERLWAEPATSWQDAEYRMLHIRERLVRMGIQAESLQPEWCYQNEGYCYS
Description: (§1) inhibition of 4MU-β-GlcNAc hydrolysis, Dixon plot on OfHex1

[2] = molecular target: T2, OfHex1 (Ostrinia furnacalis, UniProt Q06GJ0, E328A); assay: inhibition of 4MU-β-GlcNAc hydrolysis, Dixon plot; assay type: biochemical
T2 construct: pPIC9, secreted from Pichia pastoris GS115; HisTrap and Mono Q purified; dimer with N-terminal zincin-like and C-terminal catalytic domain (residues 207-594)
T2 sequence (Q06GJ0 23-594 E328A): T1 sequence (Q06GJ0 23-594 E328Q)
Description: as §1

## CC(=O)N[C@@H]1[C@@H](O)[C@H](O[C@@H]2O[C@H](CO)[C@@H](O[C@@H]3O[C@H](CO)[C@@H](O[C@@H]4O[C@H](CO)[C@@H](O)[C@H](O)[C@H]4[N+](C)(C)C)[C@H](O)[C@H]3NC(C)=O)[C@H](O)[C@H]2NC(C)=O)[C@@H](CO)O[C@H]1O [TMG-chitotriomycin]
[1]
  Ki: 0.101 µM
[2]
  Ki: 2.71 µM
